According to US20140364493A1, “METHOD OF INHIBITING REMNANT LIPOPROTEIN PRODUCTION” (Japan Tobacco Inc., priority 2003, published 2014):

Experiments:
[1] = target: T1, CETP (Homo sapiens, UniProt P11597); assay: CETP activity in [3H]CE-HDL3-containing plasma (radioactivity in HDL fraction); format: biochemical; conditions: 37° C.
T1 construct: added to the plasma of healthy subject to prepare a [^3H]CE-HDL3-containing plasma; from tissue; host or cells: plasma of healthy subject
T1 sequence (P11597 18-493): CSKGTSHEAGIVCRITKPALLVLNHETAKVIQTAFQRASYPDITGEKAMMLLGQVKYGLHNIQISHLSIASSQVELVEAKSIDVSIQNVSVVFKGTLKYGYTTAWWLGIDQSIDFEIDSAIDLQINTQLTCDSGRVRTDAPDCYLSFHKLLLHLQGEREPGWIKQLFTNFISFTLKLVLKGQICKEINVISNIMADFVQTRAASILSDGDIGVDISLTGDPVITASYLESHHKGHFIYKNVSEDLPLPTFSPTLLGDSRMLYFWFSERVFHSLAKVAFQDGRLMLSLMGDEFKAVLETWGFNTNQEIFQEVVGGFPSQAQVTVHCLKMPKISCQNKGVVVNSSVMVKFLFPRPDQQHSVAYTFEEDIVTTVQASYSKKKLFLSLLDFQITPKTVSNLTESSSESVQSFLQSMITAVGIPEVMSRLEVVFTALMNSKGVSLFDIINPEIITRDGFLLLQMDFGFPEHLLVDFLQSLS
Method: (§1) Potassium bromide (KBr) was added to plasma (40 mL) of healthy subject and the mixture was adjusted to have a specific density d=1.125 g/mL. The mixture was subjected to density gradient centrifugation (227,000×g, 4° C., 17 hr) and a fraction showing a specific density of d>1.125 g/mL (HDL3 fraction) was harvested. The obtained fraction was dialyzed against PBS solution [10 mmol/L Na2HPO4; 10 mmol/L NaH2PO4; 0.15 mol/L NaCl; 1 mmol/L EDTA (pH 7.4)]. Then, tritium-labeled cholesterol (37 MBq) was dissolved in 95% ethanol, gradually added to the above-mentioned HDL3 fraction with stirring and incubated at 37° C. for 18 hr. [By this operation, tritium-labeled cholesterol was esterified by the action of lecithin cholesterol acyl transferase (LCAT) present on the HDL3 surface and taken up into HDL3 as tritium-labeled cholesteryl ester ([^3H]CE)]. After incubation, KBr was added, the mixture was adjusted to have a specific density d=1.21 g/mL, subjected to density gradient centrifugation (227,000×g, 4° C., 17 hr) and a fraction of specific density […] was harvested. The obtained fraction was dialyzed against the aforementioned PBS solution to give HDL3 incorporating [^3H]CE ([^3H]CE-HDL3, specific density: 1.125<d<1.21, specific activity: 22,000-33,000 dpm/μL), which was used as a donor lipoprotein.
The donor lipoprotein obtained above was added to the plasma of healthy subject to prepare a [^3H]CE-HDL3-containing plasma (2,000-4,000 dpm/μL). […] A solution of each compound in DMSO (1 μL) or DMSO (1 μL), and the [^3H]CE-HDL3-containing plasma (100 μL) were added into a microtube. On the other hand, the monoclonal antibody was diluted with physiological saline and added into a microtube together with a diluted solution (5 μL) of the monoclonal antibody or physiological saline (5 μL), and [^3H]CE-HDL3 containing plasma (95 μL). […] After ice-cooling, a remnant fraction was harvested using “RLP-cholesterol “JIMRO II”” (manufactured by Japan Immunoresearch Laboratories Co., Ltd.), and the radioactivity in the fraction was measured with a liquid scintillation counter. The difference in the measured values from incubation of solvent alone at 4° C. and 37° C. was taken as a 100% cholesteryl ester transfer activity, and the percent of decrease in the measured values of incubation at 37° C. with the addition of each compound or the antibody was taken as percent inhibition of cholesteryl ester transfer.
The CETP activity was measured according to the method shown below using a part of the same plasma after incubation. After ice-cooling, plasma (80 μL) was separated and a TBS solution [80 μL, 20 mmol/L Tris; 0.15 mol/L NaCl (pH 7.4)] containing 50 mmol/L magnesium chloride and 0.1% dextran sulfate was added to each microtube and thoroughly stirred. After standing at 4° C. for 30 min, the mixture was centrifuged (10,000×g, 4° C., 10 min.), and the radioactivity in the obtained supernatant (HDL fraction) was measured with a scintillation counter. The difference in the measured values from incubation of solvent alone at 4° C. and 37° C. was taken as a 100% CETP activity, and the percent of decrease in the measured values of incubation at 37° C. with the addition of each compound or the antibody was taken as percent inhibition of CETP activity. The above results are shown in the following.

[2] = test system: cholesteryl ester transfer from donor lipoprotein to remnant lipoprotein; assay: Cholesteryl ester transfer from donor lipoprotein ([3H]CE-HDL3) to remnant lipoprotein fraction in plasma; format: biochemical, human; conditions: [3H]CE-HDL3-containing plasma, 37° C.
Method: as §1
The donor lipoprotein obtained above was added to the plasma of healthy subject to prepare a [^3H]CE-HDL3-containing plasma (2,000-4,000 dpm/μL). Compound A, Compound B, Compound C and Compound D were dissolved in dimethyl sulfoxide (DMSO). A solution of each compound in DMSO (1 μL) or DMSO (1 μL), and the [^3H]CE-HDL3-containing plasma (100 μL) were added into a microtube. On the other hand, the monoclonal antibody was diluted with physiological saline and added into a microtube together with a diluted solution (5 μL) of the monoclonal antibody or physiological saline (5 μL), and [^3H]CE-HDL3 containing plasma (95 μL). […] After ice-cooling, a remnant fraction was harvested using “RLP-cholesterol “JIMRO II”” (manufactured by Japan Immunoresearch Laboratories Co., Ltd.), and the radioactivity in the fraction was measured with a liquid scintillation counter. The difference in the measured values from incubation of solvent alone at 4° C. and 37° C. was taken as a 100% cholesteryl ester transfer activity, and the percent of decrease in the measured values of incubation at 37° C. with the addition of each compound or the antibody was taken as percent inhibition of cholesteryl ester transfer.

[3] = test system: remnant lipoprotein production in plasma of healthy subject; assay: In vitro effect on remnant lipoprotein production in plasma (RLP-cholesterol JIMRO II); format: biochemical, human; conditions: 37° C.
Method: Compound A, Compound B, Compound C and Compound D were previously dissolved in dimethyl sulfoxide (DMSO). Plasma (200 μL) of healthy subject, and a solution (2 μL) of each compound in DMSO or DMSO (2 μL) were added into a microtube. On the other hand, a monoclonal antibody against human CETP was diluted with physiological saline and added into a microtube together with plasma (190 μL) of healthy subject and a diluted solution (10 μL) of the monoclonal antibody or physiological saline (10 μL). […] After ice-cooling, the cholesterol amount in the remnant fraction was measured using “RLP-cholesterol “JIMRO II”” (manufactured by Japan Immunoresearch Laboratories Co., Ltd.). The difference in the measured values from incubation of solvent alone at 4° C. and 37° C., namely, an increase in the remnant cholesterol was taken as a 100% production amount of remnant lipoprotein, and the percent of decrease in the measured values of incubation at 37° C. with the addition of each compound or the antibody was taken as percent inhibition of remnant lipoprotein production.

CCN(C[C@H]1CC[C@H](CC(=O)O)CC1)c1cc(C)c(C(F)(F)F)cc1CN(Cc1cc(C(F)(F)F)cc(C(F)(F)F)c1)c1nnn(C)n1.CS(=O)(=O)O [Compound B, trans-(4-{[N-(2-{[N′-[3,5-bis(trifluoromethyl)benzyl]-N′-(2-methyl-2H-tetrazol-5-yl)amino]methyl}-5-methyl-4-trifluoromethylphenyl)-N-ethylamino]methyl}cyclohexyl)acetic acid methanesulfonate]
Inhibition (%) of CETP activity ([1]; 0.01 μM, 4 hr): 10%
Inhibition (%) of CETP activity ([1]; 0.03 μM, 4 hr): 25%
Inhibition (%) of CETP activity ([1]; 0.1 μM, 4 hr): 53%
Inhibition (%) of CETP activity ([1]; 0.3 μM, 4 hr): 74%
Inhibition (%) of CETP activity ([1]; 1 μM, 4 hr): 86%
Inhibition (%) of cholesteryl ester transfer to remnant fraction ([2]; 0.01 μM, 4 hr): 15%
Inhibition (%) of cholesteryl ester transfer to remnant fraction ([2]; 0.03 μM, 4 hr): 26%
Inhibition (%) of cholesteryl ester transfer to remnant fraction ([2]; 0.1 μM, 4 hr): 55%
Inhibition (%) of cholesteryl ester transfer to remnant fraction ([2]; 0.3 μM, 4 hr): 89%
Inhibition (%) of cholesteryl ester transfer to remnant fraction ([2]; 1 μM, 4 hr): 100%
Inhibition (%) of remnant lipoprotein production ([3]; 0.01 μM, 4 hr): 29%
Inhibition (%) of remnant lipoprotein production ([3]; 0.03 μM, 4 hr): 36%
Inhibition (%) of remnant lipoprotein production ([3]; 0.1 μM, 4 hr): 42%
Inhibition (%) of remnant lipoprotein production ([3]; 0.3 μM, 4 hr): 52%
Inhibition (%) of remnant lipoprotein production ([3]; 1 μM, 4 hr): 84%

CCN(CC1CCCC1)c1cc2c(cc1CN(Cc1cc(C#N)cc(C(F)(F)F)c1)C(=O)OC)CCC2 [Compound C, methyl (3-cyano-5-trifluoromethylbenzyl)-[6-(N-cyclopentylmethyl-N-ethylamino)indan-5-ylmethyl]-carbamate]
inhibition at 0.1 µM ([1]; 0.1 μM, 4 hr): 6%
inhibition at 0.3 µM ([1]; 0.3 μM, 4 hr): 12%
inhibition at 1 µM ([1]; 1 μM, 4 hr): 31%
inhibition at 3 µM ([1]; 3 μM, 4 hr): 57%
Inhibition (%) of cholesteryl ester transfer to remnant fraction ([2]; 0.1 μM, 4 hr): −25%
Inhibition (%) of cholesteryl ester transfer to remnant fraction ([2]; 0.3 μM, 4 hr): 9%
Inhibition (%) of cholesteryl ester transfer to remnant fraction ([2]; 1 μM, 4 hr): 35%
Inhibition (%) of cholesteryl ester transfer to remnant fraction ([2]; 3 μM, 4 hr): 92%
Inhibition (%) of remnant lipoprotein production ([3]; 0.1 μM, 4 hr): 21%
Inhibition (%) of remnant lipoprotein production ([3]; 0.3 μM, 4 hr): 34%
Inhibition (%) of remnant lipoprotein production ([3]; 1 μM, 4 hr): 41%
Inhibition (%) of remnant lipoprotein production ([3]; 3 μM, 4 hr): 93%

CCC(CC)CC1(C(=O)Nc2ccccc2SC(=O)C(C)C)CCCCC1 [Compound A, S-{2-([[1-(2-ethylbutyl)cyclohexyl]carbonyl]amino)phenyl}2-methylpropanethioate]
Inhibition (%) of CETP activity ([1]; 3 μM, 6 hr): 3%
Inhibition (%) of CETP activity ([1]; 10 μM, 6 hr): 34%
Inhibition (%) of CETP activity ([1]; 30 μM, 6 hr): 75%
Inhibition (%) of cholesteryl ester transfer to remnant fraction ([2]; 3 μM, 6 hr): 21%
Inhibition (%) of cholesteryl ester transfer to remnant fraction ([2]; 10 μM, 6 hr): 29%
Inhibition (%) of cholesteryl ester transfer to remnant fraction ([2]; 30 μM, 6 hr): 92%
Inhibition (%) of remnant lipoprotein production ([3]; 3 μM, 6 hr): 25%
Inhibition (%) of remnant lipoprotein production ([3]; 10 μM, 6 hr): 54%
Inhibition (%) of remnant lipoprotein production ([3]; 30 μM, 6 hr): 77%

CCOC(=O)N1c2ccc(C(F)(F)F)cc2[C@@H](N(Cc2cc(C(F)(F)F)cc(C(F)(F)F)c2)C(=O)OC)C[C@H]1CC [Compound D, ethyl (2R,4S)-4-[[3,5-bis(trifluoromethyl)benzyl](methoxycarbonyl)amino]-2-ethyl-6-(trifluoromethyl)-3,4-dihydroquinoline-1(2H)-carboxylic acid ester]
Inhibition (%) of cholesteryl ester transfer to remnant fraction ([2]; 0.01 μM, 4 hr): 12%
Inhibition (%) of cholesteryl ester transfer to remnant fraction ([2]; 0.03 μM, 4 hr): 28%
Inhibition (%) of cholesteryl ester transfer to remnant fraction ([2]; 0.1 μM, 4 hr): 54%
Inhibition (%) of cholesteryl ester transfer to remnant fraction ([2]; 0.3 μM, 4 hr): 78%
Inhibition (%) of cholesteryl ester transfer to remnant fraction ([2]; 1 μM, 4 hr): 94%
Inhibition (%) of remnant lipoprotein production ([3]; 0.01 μM, 4 hr): 38%
Inhibition (%) of remnant lipoprotein production ([3]; 0.03 μM, 4 hr): 32%
Inhibition (%) of remnant lipoprotein production ([3]; 0.1 μM, 4 hr): 44%
Inhibition (%) of remnant lipoprotein production ([3]; 0.3 μM, 4 hr): 59%
Inhibition (%) of remnant lipoprotein production ([3]; 1 μM, 4 hr): 62%
